Here are results for 24 molecules from PubChem BioAssay (NCI).

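Cells were grown in 96-well plates and exposed to each compound for 48 hours at five concentrations; endpoints were interpolated linearly between bracketing concentrations, or set to the highest concentration if not reached. TGI marks complete inhibition of growth.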

What all share (assay): growth of human tumour cells (NCI), 48 h
Assay [1] relates to CAKI-1 renal.
The subject of assay [2] is HOP-92 NSCLC.
The subject of assay [3] is A498 renal.
In assay [4] the test system is BT-549 breast.
Assay [5] concerns OVCAR-4 ovarian.
The test system of assay [6] is PC-3 prostate.

As for `COC(=O)CCc1cc(OC)c2oc(-c3ccc(OC)c(OC)c3)c(CO)c2c1`, the TGI in assay [1], in assay [2], in assay [3], in assay [4], in assay [5] and in assay [6] was more than 100 µM throughout.

`COC1=C(OC)C(=O)C(C/C=C/c2c(Cl)nc3sccn23)=C(C)C1=O`: the TGI worked out at 50.7 µM in assay [1]; 48.2 µM in assay [3]; 28.8 µM in assay [4]; 13.9 µM in assay [5]; 31.6 µM in assay [6].

As for `Cc1cc(S(=O)(=O)Nc2nnc3c(Cl)cc(C(F)(F)F)cn23)c(S)cc1Cl`, the TGI in assay [1], in assay [2], in assay [3], in assay [4], in assay [5] and in assay [6] was more than 100 µM each time.

As to `COC(=O)N1C2C(C[C@@]1(C)C(=O)OC)c1ccccc1N2S(=O)(=O)c1ccccc1` (stereo partly specified), the TGI in assay [1], in assay [2], in assay [4], in assay [5] and in assay [6] was more than 100 µM each time.

`CCN(CC)CCC(=O)Nc1ccc2sc3ccccc3c(=O)c2n1`: the TGI in assay [1] was 28.8 µM; in assay [2], 0.0992 µM; in assay [4], 36.1 µM; in assay [5], more than 100 µM; in assay [6], 40.9 µM.

As to `CCCC1(N2C(=O)c3ccc4c5c(ccc(c35)C2=O)N(C2(CCC)CCCCC2)C4=O)CCCCC1`, the TGI in assay [1], in assay [2], in assay [3], in assay [5] and in assay [6] was more than 100 µM in each case.

Take `CC(NNC(=S)N1CCCC1)c1cccnn1` (stereo unspecified): the TGI in assay [1] is more than 100 µM; in assay [3] it was 97.5 µM; in assay [4], more than 56.1 µM; in assay [5], more than 76.9 µM; in assay [6] it was more than 100 µM.

Regarding `COc1cccc2c1C(=O)c1c(O)c3c(c(O)c1C2=O)CC(O)(C(C)=O)CC3OC1OC(COC(C)=O)C(OC(C)=O)C(OC(C)=O)C1OC(C)=O` (stereo unspecified), the TGI was 32.2 µM in assay [2], 53.3 µM in assay [5] and more than 100 µM in assay [6].

In the case of `Cc1cc2nc3c(C#N)c4c(c(Cl)n3c2cc1C)CCC4`, the TGI in assay [1] was 35.9 µM; in assay [2], 95.5 µM; in assay [3] it was more than 100 µM; in assay [4] it was 49 µM; in assay [5], more than 100 µM.

For the molecule `CSc1c(S(C)=O)c2ccccc2n1C` (stereo unspecified), the TGI in assay [1], in assay [3], in assay [5] and in assay [6] was more than 100 µM each time.

Turning to `O=C(N/N=C\c1ccc(Cl)cc1)Nc1cccc2ccccc12`, the TGI in assay [1] was 4.76 µM; in assay [2], 21.2 µM; in assay [3] it was 7.13 µM; in assay [4] it was more than 100 µM; in assay [5], 6.84 µM; in assay [6] it was more than 100 µM.

In the case of `O=C1NC(NNc2ccccc2)=N/C1=C\c1ccco1`, the TGI was 30.6 µM in assay [1]; 30.6 µM in assay [2]; more than 100 µM in assay [3]; 50.7 µM in assay [4]; 32.7 µM in assay [5]; 71.5 µM in assay [6].

Turning to `COc1c(N2CCCCC2)c2c(=O)c3ccccc3oc2c2c3ccccc3n(C)c12`, the TGI in assay [1], in assay [2], in assay [4], in assay [5] and in assay [6] was more than 100 µM in each case.

Turning to `CC(=O)Oc1ccc(C)c2c1[C@H]1CC[C@]3(C)[C@@H](OC(C)=O)CC[C@H]3[C@@H]1CC2`, the TGI was 30.9 µM in assay [2], 31.4 µM in assay [3] and 32 µM in assay [4].

As to `O=[N+]([O-])c1ccc(C2NC(=S)NC3c4cc([N+](=O)[O-])ccc4CCCC23)cc1` (stereo unspecified), the TGI was more than 100 µM in assay [1]; 45.5 µM in assay [2]; more than 100 µM in assay [3]; more than 100 µM in assay [4]; more than 100 µM in assay [5]; more than 100 µM in assay [6].

On to `C=C1C(=O)O[C@H]2C1C[C@H](O)/C(C)=C/CC[C@@]1(C)O[C@H]21` (stereo partly specified), for which the results for the TGI in assay [1], in assay [2] and in assay [5] were 28.4 µM, 33 µM and 30.2 µM, respectively.

Regarding `O=C(O)CCC1(CCC(=O)O)CCCCCCCCC(CCC(=O)O)(CCC(=O)O)C(=O)C1=O`, the TGI in assay [1], in assay [2], in assay [5] and in assay [6] was more than 100 µM in each case.

`N#Cc1c2c(c(Nc3cccc(C(F)(F)F)c3)n3c1nc1ccccc13)CCCC2`: the TGI in assay [1] was 82.4 µM; in assay [2] it was 22.5 µM; in assay [3], 94.9 µM; in assay [4], 95.3 µM; in assay [5], more than 100 µM.

On to `Cc1cnc2c(c1)C(=O)N(c1ccc(Br)cc1)S2(=O)=O`, for which the TGI in assay [1], in assay [4], in assay [5] and in assay [6] was more than 100 µM throughout.

Take `Cn1c2ccccc2c(=NNc2ccc(S(=O)(=O)N=C(N)N)cc2)c2ccccc21`: the TGI came to 38.8 µM in assay [1]; 36.4 µM in assay [2]; 29.1 µM in assay [4]; 16.8 µM in assay [5]; 21.3 µM in assay [6].

On to `O=C(O)c1ccc(Nc2nc3ccc(C(F)(F)F)cc3nc2-c2ccccc2)cc1`, for which the TGI in assay [1] and in assay [6] was more than 100 µM each time.

Take `COc1c(-c2ccc(F)cc2)oc2c(CC(=O)O)cccc2c1=O`: the TGI in assay [1] is 71.5 µM; in assay [3], more than 100 µM; in assay [4] it was more than 100 µM; in assay [6], more than 100 µM.

For the molecule `Oc1c(Cl)c(Cl)c(O)c(-c2cnc(-c3ncc(-c4c(O)c(Cl)c(Cl)c(O)c4Cl)s3)s2)c1Cl`, the TGI was 41.2 µM in assay [1], more than 100 µM in assay [2], more than 100 µM in assay [5] and more than 100 µM in assay [6].

Take `O=c1[nH]nc(-c2ccccc2)n1-n1cccc1`: the TGI in assay [1], in assay [3], in assay [4], in assay [5] and in assay [6] was more than 100 µM each time.
